Entries after “also recorded” stand apart in the source; their conditions may differ. Starred links: 1 amine or outer side, 2 acyl side, 3 side chain; linkers in the order of their positions; H or OH if unused. Positions of bridges follow the written chain, without caps; N, C: chain ends. Non-standard residues stand in square brackets, D forms with d. Residues, ends and D or L forms follow the SMILES beside them. Chains are numbered I, II in the order given. NH(CH2CH2O)6CH2CO = O=C(COCCOCCOCCOCCOCCOCCN[*:1])[*:2]; Dap = NC[C@H](N)C(=O)O
How the values were obtained:
[1] = system: c-fos; assay: qRT-PCR of c-fos mRNA in primary cortical neurons; format: cell-based; conditions: 1 nM, one hour, primary cortical neurons (DIV6); p<0.01
Procedure: (§1) The total RNA was quantitatively and qualitatively verified by a NanoDrop spectrometer (Thermo Fisher Scientific) and electrophoresis in a formaldehyde gel.
(§2) Next, 500 ng of the total RNA was reverse-transcribed using Super Script II (Thermo Fisher Scientific). Quantitative PCR was carried out using a SYBR Green real-time PCR system by the previously reported method (Akashi, M.; Takumi, T., The orphan nuclear receptor RORalpha regulates circadian transcription of the mammalian core-clock Bmal1. Nat Struct Mol Biol 2005, 12 (5), 441-8.). A Gapdh gene was used as an internal control. The following primer sequences were respectively used: Gapdh (Forward: 5′-[…]-3′ and reverse: 5′-[…]-3′) (represented by SEQ ID NOS: 14 and 15, respectively), c-fos (Forward: 5′-[…]-3′ and reverse: 5′-[…]-3′) (represented by SEQ ID NOS: 16 and 17, respectively), and Arc (Forward: 5′-[…]-3′ and reverse: 5′-[…]-3′)(represented by SEQ ID NOS: 18 and 19, respectively).

[2] = system: Erk½; assay: Western blot of phosphorylated Erk½ in primary hippocampal neurons; format: cell-based, mouse; conditions: 1 nM, 15 minutes, primary hippocampal neurons (DIV6); p<0.01 vs DMSO
Procedure: (§3) After washing with 0.1 M PBS twice, cells were lysed in a radio-immunoprecipitation assay (RIPA) buffer containing 50 mM Tris-HCI (pH 7.4), 150 mM NaCl, 2 mM EDTA, 1% Nonidet P-40, 0.5% Na-deoxycholate, 0.1% SDS, 50 mM NaF, 0.2 mM Na3VO4, 10 µg/mL aprotinin, 10 µg/mL leupeptin, and 1 mM phenylmethylsulfonyl fluoride on ice for 30 minutes. After ultrasonic treatment and centrifugation at 20,000 ×g for 30 minutes, the supernatant was subjected to SDS-PAGE. Protein amount was quantified using Bicinchoninic Acid Kit (BCA-1, Sigma).
(§4) The cell lysate (protein amount: 20 µg in P-TrkB, 10 µg in TrkB, and 5 µg in Akt and Erk) was separated using 8% polyacrylamide gel and transferred to a polyvinylidene difluoride membrane (Merck Millipore, Massachusetts, USA). […]
(§5) Finally, after the resulting membrane was washed with TBST, an immune-positive bands were detected by a chemiluminescence method using a Luminata Crescendo HPR substrate (Merck Millipore). The relative phosphorylation level of each kinase was calculated as a ratio of phosphorylated kinase/all kinases.

[3] = biological target: T1, mouse TrkB (Mus musculus, UniProt P15209); assay: Western blot of phosphorylated Trk in primary mouse hippocampal neurons; format: cell-based
T1 construct: induce phosphorylation of mouse TrkB in primary mouse hippocampal neurons; endogenous in cells; host or cells: primary mouse hippocampal neurons (DIV6)
T1 sequence (P15209 32-821): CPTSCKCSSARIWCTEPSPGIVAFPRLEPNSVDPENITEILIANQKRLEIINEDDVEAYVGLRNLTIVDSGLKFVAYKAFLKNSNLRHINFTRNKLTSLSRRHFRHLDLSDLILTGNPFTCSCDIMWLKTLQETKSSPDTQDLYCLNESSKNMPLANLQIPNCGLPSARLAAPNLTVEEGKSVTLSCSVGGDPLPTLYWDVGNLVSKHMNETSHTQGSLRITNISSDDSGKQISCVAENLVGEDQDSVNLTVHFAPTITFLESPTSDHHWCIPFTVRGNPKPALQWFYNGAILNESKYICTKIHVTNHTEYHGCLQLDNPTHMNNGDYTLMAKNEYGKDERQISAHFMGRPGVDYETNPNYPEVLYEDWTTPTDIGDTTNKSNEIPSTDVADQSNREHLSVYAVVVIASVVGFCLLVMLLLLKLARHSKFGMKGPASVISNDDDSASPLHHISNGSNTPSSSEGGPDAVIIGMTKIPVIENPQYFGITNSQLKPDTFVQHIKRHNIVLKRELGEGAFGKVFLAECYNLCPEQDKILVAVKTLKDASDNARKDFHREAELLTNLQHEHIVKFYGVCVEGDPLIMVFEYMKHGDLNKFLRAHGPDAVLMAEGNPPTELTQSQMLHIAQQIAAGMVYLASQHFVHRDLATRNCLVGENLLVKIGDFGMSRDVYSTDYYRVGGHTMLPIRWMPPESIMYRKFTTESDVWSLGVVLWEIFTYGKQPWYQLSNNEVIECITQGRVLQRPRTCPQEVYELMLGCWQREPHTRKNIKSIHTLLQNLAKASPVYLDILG
Procedure: as §3
The cell lysate (protein amount: 20 µg in P-TrkB, 10 µg in TrkB, and 5 µg in Akt and Erk) was separated using 8% polyacrylamide gel and transferred to a polyvinylidene difluoride membrane (Merck Millipore, Massachusetts, USA). The resulting membrane was blocked for 1 hour with a blocking buffer (5% bovine serum albumin (BSA) tris-buffered physiological saline (TBST) containing 0.05% tween-20), followed by incubation overnight at 4° C. in a blocking buffer containing a primary antibody (rabbit anti-TrkB antibody, 1:1,000 dilution, Cat#4603; rabbit anti-phosphorylated Trk antibody, 1:1,000 dilution, Cat#9141; mouse anti-pan-Akt antibody, 1:2,000 dilution, Cat#2920; rabbit anti-phosphorylated Akt (S473) antibody, 1:2,000 dilution, Cat#4060; rabbit anti-Erk½ antibody, 1:2,000 dilution, Cat#4695; mouse anti-phosphorylated Erk½ antibody, 1:2,000 dilution, Cat#9106 (Cell Signaling Technology)). After washing with TBST for 10 minutes four times, the membrane was incubated with a secondary antibody (peroxidase-conjugated goat anti-rabbit IgG antibody, 1:10,000 dilution, Cat#111-035-003 (Jackson Immuno Research); peroxidase-conjugated sheep anti-mouse IgG antibody, 1:10,000 dilution, Cat#NA9310 (GE Healthcare)) for one hour at room temperature.
as §5, with “kinases. […]” for “kinases.”

[4] = system: primary hippocampal neurons; assay: Immunocytochemistry for evaluation of axonal outgrowth; format: cell-based; conditions: for axonal outgrowth: p<0.01 vs DMSO
Procedure: The cells were washed twice with 0.1 M phosphate-buffered physiological saline (PBS) and immobilized for 15 minutes with 2% paraformaldehyde (PFA)/4% sucrose (in 0.1 M PBS). After washing three times with PBS, the cells were subjected to permeabilization for 3 minutes with PBS (P\BST) containing 0.2% Triton-X and incubated for one hour with a blocking solution (PBST containing 5% normal goat serum) to prevent non-specific binding. Then, the cells were incubated overnight at 4° C. with a primary antibody diluted with the blocking solution (rabbit anti-Tau polyclonal antibody, 1:1,000 dilution; cat#ab64193 (abcam); mouse anti-MAP2 monoclonal antibody, 1:1,000 dilution, M4403 (Sigma)). After washing of the cells with PBST for 10 minutes was performed four times, they were incubated at room temperature for 2 hours with a fluorescently-labeled secondary antibody diluted with the block solution (Alexa Fluor 488-labeled goat anti-mouse IgG antibody, 1:1,000 dilution, A-11029; Alexa Fluor 568-labeled goat anti-rabbit IgG antibody, 1:1,000 dilution, A-21069 (Thermo Fisher Scientific)).
Next, after washing of the cells with PBST for 10 minutes was performed four times, they were mounted with […] containing DAPI (H-1200 (Vector Laboratories)) and an image was obtained using a Virtual Slide microscope system (VS120 (Olympus)) having a x20 objective lens. The images were analyzed using a neuron J plugin in Image J software and the neurite length tracing and quantification were performed (Meijering, E.; Jacob, M.; Sarria, J. C.; Steiner, P.; Hirling, H.; Unser, M., Design and validation of a tool for neurite tracing and analysis in fluorescence microscopy images. Cytometry A 2004, 58 (2), 167-76.).

[5] = system: 40 RTKs (receptor tyrosine kinases); assay: Phospho-RTK array evaluation (off-target activity); format: cell-based, mouse; conditions: primary hippocampal neurons (DIV6)
Procedure: Comprehensive study of the phosphorylated tyrosine kinase receptor was conducted using a phospho-RTK array in accordance with the manufacturer’s protocol (Proteome Profiler mouse Phospho-RTK Array Kit, ARY014, R&D Systems). The phosphorylation level was evaluated by pixel density and quantified by Image J Software.

[6] = system: Arc; assay: qRT-PCR of Arc mRNA in primary cortical neurons; format: cell-based; conditions: 1 nM, one hour, primary cortical neurons (DIV6); p<0.01
Procedure: as §1, §2

[7] = system: Akt; assay: Western blot of phosphorylated Akt (S473) in primary hippocampal neurons; format: cell-based, mouse; conditions: 1 nM, 15 minutes, primary hippocampal neurons (DIV6); p<0.01 vs DMSO
Procedure: as §3, §4, §5

[8] = biological target: T2, extracellular domain of hTrkC (Homo sapiens, UniProt Q16288); assay: SPR binding kinetics (Biacore T200), hTrkC; conditions: 1:1 binding model
T2 construct: the extracellular domain of hTrkA, hTrkC, and hTrkB
T2 sequence (Q16288 32-429 limits assumed): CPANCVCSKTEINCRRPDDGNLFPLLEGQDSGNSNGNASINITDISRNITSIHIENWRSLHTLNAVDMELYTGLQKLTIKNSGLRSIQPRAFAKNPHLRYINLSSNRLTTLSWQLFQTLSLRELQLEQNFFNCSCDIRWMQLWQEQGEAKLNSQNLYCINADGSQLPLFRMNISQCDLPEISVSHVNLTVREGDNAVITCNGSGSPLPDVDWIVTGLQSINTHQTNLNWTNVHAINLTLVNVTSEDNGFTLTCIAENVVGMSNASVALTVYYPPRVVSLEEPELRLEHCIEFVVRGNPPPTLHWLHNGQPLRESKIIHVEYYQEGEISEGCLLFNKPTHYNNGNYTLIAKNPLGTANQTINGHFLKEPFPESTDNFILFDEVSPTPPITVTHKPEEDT
Procedure: (§6) With respect to the binding kinetics (binding affinity (dissociation constant) KD) of the cyclic peptides towards the extracellular domain of hTrkA, hTrkC, and hTrkB (which will hereinafter be called “hTrkA-C proteins”, collectively) immobilized on a sensor chip via a His6-tag, quantitative measurements making use of surface plasmon resonance (SPR) were carried out to evaluate the binding intensity and selectivity of the cyclic peptide to hTrkB, compared with that to hTrkA and hTrkC.
(§7) The binding kinetics of each peptide towards the hTrkA-C proteins were determined using Biacore T200 (GE Healthcare). The buffer used was HBS-P+ (10 mM HEPES, 150 mM NaCl, and 0.05 vol% surfactant P20, pH 7.4) containing 0.1 vol% DMSO and 1 mM b-dodecyl-maltoside. 100 nM hTrkA-C proteins were immobilized on a Ni^2+ treated NTA chip in accordance with the manufacturer’s instructions (baseline response 1000 to 3000 refraction units). Peptides were injected as an analyte at a flow rate of […] and binding kinetics was modelled using a 1:1 binding model.

[9] = biological target: extracellular domain of hTrkA (Homo sapiens, UniProt P04629); assay: SPR binding kinetics (Biacore T200), hTrkA; design: the extracellular domain of hTrkA, hTrkC, and hTrkB; conditions: 1:1 binding model
Procedure: as §6, §7

[10] = biological target: T3, extracellular domain of hTrkB (Homo sapiens, UniProt Q16620); assay: SPR binding kinetics (Biacore T200), hTrkB; conditions: Monomer (cyclic peptide), 1:1 binding model, 1 to 1000 nM, read-out: binding affinity KD, TrkB
T3 construct: the extracellular domain of hTrkA, hTrkC, and hTrkB
Procedure: as §6, §7

[11] = biological target: TrkB (Homo sapiens, UniProt Q16620); conditions: Non-Patent Document 3; cited from earlier work
Chain of TrkB (Q16620 32-822, species assumed): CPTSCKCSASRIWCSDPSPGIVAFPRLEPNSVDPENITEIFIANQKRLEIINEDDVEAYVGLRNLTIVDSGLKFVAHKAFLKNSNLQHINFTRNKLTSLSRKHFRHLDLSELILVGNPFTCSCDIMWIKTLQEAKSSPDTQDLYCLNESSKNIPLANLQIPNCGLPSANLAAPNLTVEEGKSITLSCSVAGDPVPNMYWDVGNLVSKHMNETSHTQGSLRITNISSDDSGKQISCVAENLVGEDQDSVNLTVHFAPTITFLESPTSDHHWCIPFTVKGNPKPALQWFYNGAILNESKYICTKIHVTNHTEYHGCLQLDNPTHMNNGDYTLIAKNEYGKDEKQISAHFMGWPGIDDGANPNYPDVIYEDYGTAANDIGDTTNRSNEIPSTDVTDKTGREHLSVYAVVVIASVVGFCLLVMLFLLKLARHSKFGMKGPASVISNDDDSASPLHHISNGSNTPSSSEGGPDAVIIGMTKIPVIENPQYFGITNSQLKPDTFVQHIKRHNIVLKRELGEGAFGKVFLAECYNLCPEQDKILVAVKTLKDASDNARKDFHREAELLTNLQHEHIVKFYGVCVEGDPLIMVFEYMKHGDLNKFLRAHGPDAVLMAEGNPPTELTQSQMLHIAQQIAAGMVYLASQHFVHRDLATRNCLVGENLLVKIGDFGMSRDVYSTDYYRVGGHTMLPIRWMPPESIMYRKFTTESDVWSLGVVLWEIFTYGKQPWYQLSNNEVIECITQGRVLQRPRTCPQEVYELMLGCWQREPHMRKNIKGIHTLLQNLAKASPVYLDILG

Compound: CC(C)C[C@@H]1NC(=O)[C@H](Cc2ccc(O)cc2)NC(=O)CSC[C@@H](C(=O)NCC(=O)N[C@@H](CO)C(=O)NCC(=O)N[C@@H](CO)C(=O)NCC(=O)N[C@@H](CO)C(=O)NCCOCCOCCOCCOCCOCCOCC(=O)NC[C@H](NC(=O)COCCOCCOCCOCCOCCOCCNC(=O)[C@H](CO)NC(=O)CNC(=O)[C@H](CO)NC(=O)CNC(=O)[C@H](CO)NC(=O)CNC(=O)[C@@H]2CSCC(=O)N[C@@H](Cc3ccc(O)cc3)C(=O)N[C@@H](CC(C)C)C(=O)N[C@@H](CCCNC(=N)N)C(=O)N3CCC[C@H]3C(=O)N[C@@H](CCCNC(=N)N)C(=O)N[C@@H](Cc3ccc(O)cc3)C(=O)N[C@@H](CCCCN)C(=O)N[C@@H](Cc3ccccc3)C(=O)N[C@@H](Cc3c[nH]c4ccccc34)C(=O)N2)C(N)=O)NC(=O)[C@H](Cc2c[nH]c3ccccc23)NC(=O)[C@H](Cc2ccccc2)NC(=O)[C@H](CCCCN)NC(=O)[C@H](Cc2ccc(O)cc2)NC(=O)[C@H](CCCNC(=N)N)NC(=O)[C@@H]2CCCN2C(=O)[C@H](CCCNC(=N)N)NC1=O [DiTrbL3] (I: {CH2CO}-YLRPRYKFWCGSGSGS[NH(CH2CH2O)6CH2CO][Dap]-NH2 / II: {CH2CO}-YLRPRYKFWCGSGSGS[NH(CH2CH2O)6CH2CO]; amide I:18-II:C; thioether I:N-I:10, II:N-II:10)
- mRNA expression of c-fos [1]: significantly increased
- phosphorylation of Erk½ [2]: drastically activated phosphorylation; also recorded: a significant difference is present in induction between DMSO and DiTrbL3
- TrkB phosphorylation, dose titration ([3]; 0.2 nM, p<0.01 vs DMSO): obviously induces TrkB phosphorylation
- phosphorylation of TrkB ([3]; 1 nM, 15 minutes, primary mouse hippocampal neurons (DIV6)): induced phosphorylation of TrkB
- axonal outgrowth ([4]; 10 nM, DIV0 to 3): significantly reinforced the axonal outgrowth
- axonal outgrowth ([4]; 100 nM, DIV0 to 3): significantly reinforced the axonal outgrowth
- axonal length of primary neurons ([4]; treated for 3 days (DIV0 to 3)): elongated
- RTK phosphorylation in phospho-RTK array ([5]; 1 nM, 40 RTKs): phosphorylated only TrkB
- mRNA expression of Arc [6]: significantly increased
- phosphorylation of Akt [7]: drastically activated phosphorylation; also recorded: a significant difference is present in induction between DMSO and DiTrbL3
- binding affinity KD, TrkC ([8]; Homodimer (peptide complex)): N.B.
- binding affinity KD, TrkA ([9]; Homodimer (peptide complex)): N.B.

Compound: CC(C)C[C@@H]1NC(=O)[C@H](CCCNC(=N)N)NC(=O)[C@H](Cc2ccccc2)NC(=O)[C@H](CCCNC(=N)N)NC(=O)[C@@H]2CCCN2C(=O)[C@H]([C@@H](C)O)NC(=O)[C@H](CCC(N)=O)NC(=O)[C@H](Cc2c[nH]c3ccccc23)NC(=O)[C@H](Cc2ccccc2)NC(=O)[C@H](CCCNC(=N)N)NC(=O)[C@H](Cc2ccc(O)cc2)NC(=O)CSC[C@@H](C(=O)NCC(=O)N[C@@H](CO)C(=O)NCC(=O)N[C@@H](CO)C(=O)NCC(=O)N[C@@H](CO)C(N)=O)NC1=O [TrbL2] ({CH2CO}-YRFWQTPRFRLCGSGSGS-NH2; thioether N-12)
- Kd [10]: 70 nM
- binding affinity KD, TrkC ([8]; Monomer (cyclic peptide), 1 to 1000 nM): N.B.
- Kd ([9]; Monomer (cyclic peptide), 1 to 1000 nM, read-out: binding affinity KD, TrkA): 100 nM

Compound: BDNF: brain-derived neurotrophic factor, natural protein agonist of TrkB, positive control
- phosphorylation of Trk ([3]; 0.1 nM, 15 minutes, primary mouse hippocampal neurons (DIV6)): induced phosphorylation of Trk
- axonal length of primary neurons ([4]; 2 nM BDNF, DIV0 to 3): elongated
- RTK phosphorylation in phospho-RTK array ([5]; 0.1 nM, incubation for one hour as printed): caused phosphorylation of TrkB
- affinity for TrkB relative to that of p75 [11]: at least 10 times

Reference: patent publication US20230312651A1, “Cyclic Peptide, Peptide Complex, and Drug Composition Containing Said Cyclic Peptide and/or Said Peptide Complex” (The University of Tokyo, priority 2020, published 2023)
